Test results published in patent US6653354B2, “NMDA antagonist comprising xenon” (priority 1999, dated 2003).
Entries after “also recorded” stand apart in the source; their conditions may differ.

How the values were obtained:
[1] = test system: glutamatergic synapses (NMDA receptor slow component, AMPA/KA receptor fast component) of hippocampal neurons; assay: Excitatory (glutamatergic) postsynaptic currents, voltage-clamped autaptic hippocampal neurons; format: cell-based, rat
Protocol: Hippocampal neurons were grown in culture using methods described previously (Segal M M et al, J. Neurophysiol. 1990, 64:1390-1399; Bekkers J M et al, Proc. Natl. Acad. Sci. U.S.A. 1991, 88:7834-7838; Mennerick S et al, J. Neurophysiol. 1995, 73:320-332). Briefly, hippocampi from Sprague Dawley rats (postnatal day 1-3) were dissected, roughly sliced and agitated in a papain-containing solution (20 units ml^−1) for 30 minutes at 37 EC. After washing with enzyme-free solution, the tissue was gently triturated with a fire-polished Pasteur pipette and the cells were plated out at a density of 8-10×10^4 cells ml^−1 and cultured (95% air/5% CO2) at 37° C. Glass coverslips used for culturing the cells were first coated with agarose (0.15% w/v) and then sprayed with a fine mist of poly-D-lysine (PDL) and collagen (0.1 mg ml^−1 PDL and 0.5 mg ml^−1 rat-tail collagen) from a glass micro-atomiser and sterilized by UV exposure. This produced micro-islands of permissive substrate with diameters of between 100 and 1000 μm. At 3-4 days after plating, when the glial cell layer was about 80% confluent, an anti-mitotic agent (cytosine β-D-arabinofuranoside, 5 μM) was added to arrest glial cell proliferation. Neuronal cultures were then allowed to mature for another 4-9 days. We used micro-islands which contained single isolated neurons whose axonal processes and dendritic trees formed multiple self-synapses (autapses). This procedure provided a large population of phenotypically identical monosynaptic connections.
The neurons were voltage-clamped using the whole-cell recording technique (Axopatch 200 amplifier, Axon Instruments, Foster City, Calif.). Electrodes were fabricated from borosilicate glass and typically had resistances of between 3-5 MΩ. Series resistance was compensated by 75-90%. Neurons were voltage-clamped at −60 mV, and synaptic responses were stimulated by a 2 ms depolarising pulse to +20 mV. […] For the synaptic measurements, data were sampled at 50 kHz, filtered at 20 kHz (−3 dB, 8-pole Bessel) and stored on a computer. The extracellular recording solution was (mM) 137 NaCl, 5 KCl, 3 CaCl2, 5 HEPES, 10 glucose, 0.001 glycine, 0.0001 strychnine-HCl, titrated to pH 7.3 with NaOH; and the intracellular (pipette) solution was (mM) 140 KCl, 4 NaCl, 0.5 EGTA, 2 MgATP, 10 HEPES, titrated to pH 7.25 with KOH.
Xenon solutions were prepared by first bubbling pure gases (oxygen, nitrogen or xenon) through fine sintered-glass bubblers in 250- or 500-ml Drechsel bottles filled with extracellular recording saline. […] (To minimise oxidization, the neurotoxins and neurotransmitters were excluded from the fully oxygenated saline.) During bubbling, the solutions were continually stirred at room temperature. These solutions were then mixed to achieve the desired final concentrations of the gases. Our control solutions usually contained 80% of the nitrogen solution and 20% of the oxygen solution, while our test solutions usually contained 80% of the xenon solution and 20% of the oxygen solution. Using a Bunsen water/gas partition coefficient of 0.0965 (Smith R A et al, Biochim. Biophys. Acta 1981, 645:327-338) we calculate that our standard test solution contained 3.4 mM xenon. Xenon (research grade, 99.993% pure) was supplied by BOC gases, Guildford, Surrey, UK. In all cases xenon was pre-applied to the neurons for at least 30 seconds before the initiation of synaptic currents.
In order to obtain an estimate for the total charge transfer, the EPSCs or IPSCs were numerically integrated.

[2] = test system: cortical neuronal-glial co-culture injured with glutamate; assay: Glutamate-induced neuronal injury in neuronal-glial co-culture (LDH release); format: cell-based, mouse
Protocol: Dissociated murine cortical cell cultures were prepared using whole cerebral neocortices from fetal mice (14-17 days of gestation). Cortical glial cell cultures were prepared from early postnatal mice. After halting non-neuronal cell division with cytosine arabinoside the surviving cortical neuronal cells were plated onto the glial cell background and co-cultured.
15 days after originally harvesting the cortical cells, the co-culture plates were exposed at room temperature to glutamate 10-1,000 μM, in CCS from 10-30 minutes. After carefully washing out with CCS, the cells were incubated for 6-24 hours in a Eagle's minimal essential medium free of glutamate or lactate dehydrogenase (LDH) but supplemented with glucose 25 mM, and NaHCO3 38 mM at 37° C. in humidified CO2 (5%) atmosphere. The degree of injury was determined by measuring the LDH released into the medium. A dose-response curve of glutamate-induced injury is shown in FIG. 11, as described hereinbefore.
75% of one atmosphere of xenon was delivered to the cells during and after exposure to 75 μM glutamate, a concentration which produces a near maximal injury. The degree of injury was determined by measuring the LDH released into the medium (after correcting for “baseline” LDH release). Xenon reduced the injury produced by glutamate by more than 35%; when xenon was continued after glutamate exposure, the injury was further reduced by more than 60%. The results of the protective effect of xenon are illustrated in FIG. 13, as described hereinbefore.

[3] = test system: neurons of arcuate nucleus of hypothalamus; assay: NMA-induced neuron injury in the arcuate nucleus (neuroprotection in vivo); set-up: species or system Sprague Dawley female adult rats; conditions: 75% Xe + NMA 100 mg/kg s.c.
Protocol: It can be seen that NMA caused neuronal degeneration and vacuoulated swelling in the neuropil giving a spongiform appearance in the arcuate nucleus (E). The degenerated neuron has a pyknotic nucleus, which look like “bulls' eyes” because of oedematous swelling of the cytoplasmic compartment.
Rats were injected with NMA (100 mg/kg) sc and sacrificed 4 hours later after exposure to air (“NMA”; n=7) or xenon 75% (“75% xenon+NMA”; n=8). (For comparison the effect of MK801, the NMDA antagonist, is also shown). The arcuate nucleus was removed and sectioned and stained with cresyl violet. Control animals (“PS”; n=6) had neither NMA nor xenon administered. Data are reflected as either the mean of three sections/animal (upper) or the sum (lower) of degenerated neurons in both arcuate nuclei.

[4] = excitatory currents + 3.4 mM xenon

[Xe] [xenon]
effect on the fast AMPA/KA receptor-mediated component ([1]; 3.4 mM (80%) xenon): barely changes; also recorded: only a small effect | effect on the glutamatergic (excitatory) synaptic current ([1]; 3.4 mM xenon): strongly depressed; also recorded: greatly depressed | Decay half-time % change (means ± SEM) [1, 4]: −22.7 ± 2.5% | Ifast % change (means ± SEM) [1, 4]: −4.1 ± 5.2% | Ipeak % change (means ± SEM) [1, 4]: −13.5 ± 1.8% | Islow % change (means ± SEM) [1, 4]: −70.3 ± 2.4% | Qfast % change (means ± SEM) [1, 4]: −11.4 ± 5.6% | Qslow % change (means ± SEM) [1, 4]: −68.2 ± 4.2% | Total charge transfer % change (means ± SEM) [1, 4]: −55.6 ± 2.7% | τfast % change (means ± SEM) [1, 4]: −12.3 ± 1.8% | τslow % change (means ± SEM) [1, 4]: −6.7 ± 6.5% | protection against excitotoxicity (LDH release) ([2]; 100 μM glutamate for 10 minutes, low, sub-anaesthetic concentrations of xenon, LDH after 6 hours): Highly significant protection | reduction of the injury produced by glutamate (LDH release) ([2]; 75% of one atmosphere xenon during exposure to 75 μM glutamate): more than 35% | reduction of the injury produced by glutamate (LDH release) ([2]; 75% xenon continued after 75 μM glutamate exposure): more than 60% | NMA-induced neuronal injury (cresyl fast violet histology) [3]: effective in reducing this injury
